Measurements reported in US9781938B2, “Method for eliciting plant immune responses by seed priming of heat-treated Bacillus culture solution” (KOREA RESEARCH INSTITUTE OF BIOSCIENCE AND BIOTECHNOLOGY, priority 2012, dated 2017).

Tests used:
Assay type in all cases: in vivo
cucumber = experiment: Establishment of seed priming conditions using BTH: stem weight to see growth inhibition
Method: (§1) Regarding the priming of a cucumber seed, to establish conditions for seed treatment at which induced systemic resistance against is induced in a plant without inhibiting plant growth, a cucumber seed was treated with BTH (benzothiadiazole), i.e., a potent substance for eliciting resistance, and it was cultivated in a rectangular culture solution dish (125×125 mm) and a pot for determination. The cucumber seed (Bakbong Dadagi, manufactured by Nongwoo Bio, Korea) was subjected to surface sterilization for 5 minutes using 5% NaOCl and, after rinsing 5 times with sterilized water, died on a filter paper. The sterilized seed was soaked for 0, 6, 12, or 18 hours in BTH solution each at 0.1 μM, 10 μM, or 1 mM. 0 Hour means that the seed was dried immediately after soaking. The soaked seed was dried for 12 hours on a culture dish overlaid with a sterilized filter paper. The seed after priming was sown in a pot filled with soil for horticulture (Punong Co., Ltd., Korea) and also in a rectangular culture dish containing distilled water-agar medium (Water agar; WA, plant agar (8 g/L)). […] Seven days later, any symptom of disease was determined, and the degree of symptom was measured with scale of from 1 to 5. […] Stem weight was measured simultaneously with determination of the degree of symptom to see if there is any growth inhibition.

LOX gene = experiment: qRT-PCR expression of plant disease resistance-related gene LOX in cucumber leaf after pathogen inoculation; conditions: BTH treatment group; time not stated
Method: (§2) In order to measure an expression amount of a plant disease resistance-related gene, pathogen was inoculated to a cucumber, and sampling was made 0, 3 or 24 hours later. Total RNA was isolated from the sampled cucumber leaf by using RNeasy Plus Mini Kit (50). cDNA was synthesized from 2 μg of the RNA by using an oligo-dT primer and MMLV-RT (Moloney murine leukemia virus reverse transcriptase, Enzynomics, KOREA). cDNA was then used for qRT-PCR (quantitative Reverse Transcriptase Polymerase Chain Reaction) based on Chromo4 Real Time PCR system (BIO-RAD) by using each primer for the genes of LOX, PR2 and ETR that are known to be related to resistance to diseases. LOX primer is as follows; forward direction: 5′-[…]-3′ (SEQ ID NO: 1) and reverse direction: 5′-[…]-3′ (SEQ ID NO: 2), PR2 primer is as follows; forward direction: 5′-[…]-3′ (SEQ ID NO: 3) and reverse direction: 5′-[…]-3′ (SEQ ID NO: 4), and ETR primer is as follows; forward direction: 5′-[…]-3′ (SEQ ID NO: 5) and reverse direction: 5′-GCCAAAGACCACTGCCACA-3′ (SEQ ID NO: 6).

[1] = test system: Psuedomonas syringae pv. lachrymans; experiment: Establishment of seed priming conditions using BTH: induced systemic resistance in cucumber (culture dish and pot), degree of symptom; conditions: cucumber seed soaked in 1 mM BTH for 12 hours and 18 hours; in vitro and in planta
Method: as §1

PR2 gene = experiment: qRT-PCR expression of plant disease resistance-related gene PR2 in cucumber leaf after pathogen inoculation; conditions: after 24 hours
Method: as §2

In the case of `CSC(=O)c1cccc2nnsc12` [BTH, benzo(1,2,3)-thiadiazole-7-carbothioic acid S-methyl ester], the “growth inhibition (stem weight)” value (cucumber; seed soaked in 1 mM BTH for 12 hours) is reported as “no growth inhibition”, the “growth inhibition (stem weight)” value (cucumber; seed treated with 1 mM BTH for 18 hours, compared to sterilized water control) is reported as “growth inhibition is shown with a statistic significance” and the “expression level of LOX gene versus negative control” value (LOX gene) is reported as “close to that of a negative control”. For the same compound, the “eliciting induced systemic resistance” value [1] was “most effective”, the PR2 expression level (PR2 gene) was 1.7 and the “PR2 expression level relative to water (0.4)” value (PR2 gene; vs negative control water) was 4.3 times.
